In ChEMBL document CHEMBL5576070, “The recent discovery of a promising pharmacological scaffold derived from carvacrol: A review” (Bioorg Med Chem Lett, 2024):
Converted amounts (≈) assume the structure as drawn. Blank lines part the entries; values can stand above or below the compound they belong to.

Experiments:
[1] = test system: Staphylococcus epidermidis; assay: Antibacterial activity against Staphylococcus epidermidis ATCC 12228 assessed as reduction in bacterial growth incubated for 18 hrs by two fold serial microdilution method; assay type: functional
Pseudomonas aeruginosa [2] = assay: Antibacterial activity against Pseudomonas aeruginosa ATCC 15442 assessed as bacterial growth inhibition measured after 18 hrs by CLSI protocol based two-fold serial microdilution method; assay type: functional
Pseudomonas fluorescens [3] = assay: Antibacterial activity against Pseudomonas fluorescens assessed as zone of inhibition; assay type: functional
Pseudomonas fluorescens [4] = assay: Antibacterial activity against Pseudomonas fluorescens assessed as reduction in bacterial growth; assay type: functional
Escherichia coli = assay: Antibacterial activity against Escherichia coli ATCC 25922 assessed as reduction in bacterial growth incubated for 18 to 20 hrs by broth microdilution assay; assay type: functional; settings: time 18-20 hrs
Staphylococcus aureus [5] = assay: Antibacterial activity against Staphylococcus aureus ATCC 29213 assessed as bacterial growth inhibition measured after 18 hrs by CLSI protocol based two-fold serial microdilution method; assay type: functional
Bacillus subtilis = assay: Antibacterial activity against Bacillus subtilis assessed as reduction in bacterial growth incubated for 20 hrs by broth microdilution assay; assay type: functional
Streptococcus pneumoniae = assay: Antibacterial activity against Streptococcus pneumoniae assessed as reduction in bacterial cell growth inhibition by broth microdilution method; assay type: functional, organism-based
Enterococcus faecalis = assay: Antibacterial activity against Enterococcus faecalis ATCC 10541 assessed as reduction in bacterial growth incubated for 24 hrs by broth microdilution method; assay type: functional, organism-based; settings: ATCC 10541, 24 h
Staphylococcus aureus [6] = assay: Synergistic antibacterial activity against Staphylococcus aureus ATCC 29213 assessed as fractional inhibitory concentration incubated for 24 hrs in the presence of ampicillin by checkerboard assay; assay type: functional
Pseudomonas aeruginosa [7] = assay: Antibacterial activity against Pseudomonas aeruginosa ATCC 27853 assessed as bacterial growth inhibition measured after 18 hrs by CLSI protocol based two-fold serial microdilution method; assay type: functional
Pseudomonas aeruginosa [8] = assay: Bactericidal activity against Pseudomonas aeruginosa ATCC 27853 assessed as reduction in bacterial viability; assay type: functional
Mus musculus = assay: Antinociceptive activity in Swiss mouse assessed as reduction in pain like behavior at 0.003 mg/kg, ip and measured after 1.5 hrs by cold plate test; assay type: functional; set-up: scale not given: the % may be the effect or the level left
HCT-15 = assay: Growth inhibition of human HCT-15 cells incubated for 48 hrs by SRB assay; assay type: functional
MIA PaCa-2 = assay: Growth inhibition of human MIA PaCa-2 cells incubated for 48 hrs by SRB assay; assay type: functional

Compound: Cc1ccc(C(C)C)cc1OCc1cn(-c2ccc(C(=O)O)cc2)nn1
IC50 (Streptococcus pneumoniae): 15 µg/mL (≈ 42.7 µM)
IC50 (Enterococcus faecalis): 15 µg/mL (≈ 42.7 µM)

Compound: Cc1cc(S(=O)(=O)Nc2ccc(F)cc2)c(C(C)C)cc1O
FIC (Staphylococcus aureus [6]): 0.5

Compound: Cc1c(O)cc(C(C)C)cc1S(=O)(=O)N1CCOCC1
Activity (Mus musculus): 62%

Second part, led by results:

MIC [1]: 0.06 µM (≈ 0.00985 µg/mL)
MIC (Pseudomonas aeruginosa [2]): 0.49 µM (≈ 0.0805 µg/mL)
MIC (Pseudomonas fluorescens [4]): 250 µg/mL (≈ 1520 µM)
MIC (Escherichia coli): 250 µg/mL (≈ 1520 µM)
MIC (Staphylococcus aureus [5]): 250 µg/mL (≈ 1520 µM)
MIC (Bacillus subtilis): 250 µg/mL (≈ 1520 µM)
Compound: COc1cc(C(C)C)ccc1C
inhibition zone (IZ) (Pseudomonas fluorescens [3]): 15 mm

MIC (Pseudomonas aeruginosa [7]): 3.44 µg/mL (≈ 18.6 µM)
Compound: Cc1cc(Cl)c(C(C)C)cc1O
MBC (Pseudomonas aeruginosa [8]): 6.87 µg/mL (≈ 37.2 µM)

GI50 (HCT-15): 80 µg/mL
GI50 (MIA PaCa-2): 80 µg/mL
Compound: COc1cccc2c1C(=O)c1c(O)c3c(c(O)c1C2=O)C[C@@](O)(C(=O)CO)C[C@@H]3O[C@H]1C[C@H](N)[C@H](O)[C@H](C)O1.Cl [DOXORUBICIN HYDROCHLORIDE]
